From article PMC4533973, “Synthesis and Evaluation of Chloramphenicol Homodimers: Molecular Target, Antimicrobial Activity, and Toxicity against Human Cells” (PLoS ONE, 2015)

Columns and labels:
MRSA (GRE2272) = experiment: Antibacterial activity (growth inhibition, EC50); assay type: cell-based; conditions: Staphylococcus aureus, LB medium, 37°C, OD560, read-out: EC50
Description: (§1) A.S. Mankin (University of Illinois). E. coli ΔtolC strain BL21 DE3 with impaired AcrAB-TolC, a proton-dependent MDR efflux pump causing multidrug resistance, was offered by Dr D.N. Wilson (University of Munich) and included in our study to test if this mechanism of resistance affects the efficacy of CAM dimers. […] I. Spiliopoulou (National Reference Laboratory for Staphylococci, School of Medicine, University of Patras, Greece). Finally, E. coli strain Rosetta(DE3)pLysS, containing a chloramphenicol resistant gene in the pLysS plasmid, was purchased from Novagen and was also included in our study. Briefly, S. aureus or E. coli cells (200 μl of a 0.700 OD560 preculture) containing wild-type or mutant ribosomes were added in 3.8 ml of LB (Luria-Bertani) medium and grown at 37°C in the presence or absence of CAM or CAM dimers until the optical density of the control culture (grown in the absence of drug) reached the value 0.700 at 560 nm. For E. faecium and P. aeruginosa cultures, TSB (Tryptic Soy Broth) medium was used, instead of LB medium, in order to achieve exponential doubling times between 25 and 35 minutes. From dose-response curves, the half-maximal effective concentration (EC50) for each compound and strain was estimated. EC50 represents the molar concentration of a compound that produces 50% of the maximal possible effect. The EC50 values were mathematically determined by non linear regression fitting of the observed culture optical-density values, expressed as the percentage of 0.700 (y), into Hill Equation, y=min+max−min/1+(x/EC50)^−n where min and max are the lowest and highest observed values of the culture optical density, respectively, x the concentration of the tested compound, and n the Hill coefficient that represents the largest absolute value of the curve slope. EC50 is equal to the x- value of the sigmoid’s midpoint. Fitting was performed using the Four Parameter Logistic Curve of the SigmaPlot Program Version 11.0 (Systat Software, Inc) for Exact Graphs and Data Analysis.

MRSA (GRE2691) = experiment: Antibacterial activity (growth inhibition, EC50); assay type: cell-based; conditions: Staphylococcus aureus, LB medium, 37°C, OD560, read-out: EC50
Description: as §1

S. aureus (WT) = experiment: Antibacterial activity (growth inhibition, EC50); assay type: cell-based; conditions: Staphylococcus aureus; LB medium, 37°C, OD560; read-out: EC50
Description: as §1

E. faecium (GRE5152) = experiment: Antibacterial activity (growth inhibition, EC50); assay type: cell-based; conditions: Enterococcus faecium; TSB medium, 37°C, OD560; read-out: EC50
Description: as §1

[1] = tested on: E. coli Rosetta(DE3)pLysS; experiment: Antibacterial activity (growth inhibition, EC50); assay type: cell-based, Escherichia coli; conditions: Escherichia coli
Description: as §1

E. coli (A2058G) = experiment: Antibacterial activity (growth inhibition, EC50); assay type: cell-based, Escherichia coli; conditions: Escherichia coli
Description: as §1

E. coli (ΔtolC) = experiment: Antibacterial activity (growth inhibition, EC50); assay type: cell-based, Escherichia coli; conditions: Escherichia coli, BL21-DE3
Description: as §1

E. coli (WT) = experiment: Antibacterial activity (growth inhibition, EC50); assay type: cell-based, Escherichia coli; conditions: for EC50: Escherichia coli, LB medium, 37°C, OD560; for EC50(cell growth)/IC50(puro): wild-type E. coli, IC50(puro) calculated from Ki* at 2 mM puromycin
Description: as §1

E. coli (A2503C) = experiment: Antibacterial activity (growth inhibition, EC50); assay type: cell-based, Escherichia coli; conditions: Escherichia coli
Description: as §1

P. aeruginosa (GRE5288) = experiment: Antibacterial activity (growth inhibition, EC50); assay type: cell-based, Pseudomonas aeruginosa; conditions: Pseudomonas aeruginosa; TSB medium; clinical isolate with MexAB-OprM and MexXY efflux; read-out: EC50
Description: as §1

[2] = tested on: post-translocation ribosomal complex (complex C) derived from E. coli; experiment: Inhibition of peptide-bond formation (puromycin reaction, AcPhe-puromycin synthesis); assay type: biochemical; conditions: for Ki: 25°C, buffer A; for k off: nonlinear regression of k eq; for activity compared to CAM: ranking by K i*
Description: The inhibitory effect of CAM dimers on peptide-bond formation was studied using the puromycin reaction, a model reaction between puromycin and a post-translocation ribosomal complex (complex C) derived from E. coli. Since puromycin, a pseudo-substrate of PTase which binds to the A-site of the catalytic center, was present in excess, the reaction obeyed first-order kinetics. The first-order rate constant, k obs, at each concentration of puromycin was determined by fitting the x values into Eq 1, ln100/100−x=kobst (1) where x is the product AcPhe-puromycin, expressed as the percentage of complex C added in the reaction mixture, and t is the time of the reaction.
A representative time plot obtained at 400 μM puromycin, in the absence of inhibitor, is illustrated in Fig 3A (upper line) and, as expected, is characterized by linearity. However, when the reaction proceeded in the presence of a CAM dimer, e.g. compound 5, the time plots were characterized by two unique features that distinguish them from a typical kinetic behavior. […] Second, the slopes of both progress curves varied as a function of the inhibitor concentration (Fig 3A, four lower curves). […] These kinetic results are consistent with compound 5 operating through an induced fit mechanism (Fig 3C), in which the inhibitor first binds rapidly to complex C to form the encounter complex CI, which then undergoes a slow conformational change to produce a final, tighter complex C*I. Corroborative evidence for the consistency of this model is provided by the hyperbolic shape of the equilibration plots (k eq versus [I]), in which k eq represents the apparent rate constant for the attainment of equilibrium among C, CI, and C*I (Fig 3B). If one-step mechanism of inhibition was applicable (C + I ⇄ C*I), k eq should be a linear function of [I] [27]. […] Because the isomerization constant k on/k off was calculated to be 3.6, the inhibition process was finally associated with high overall inhibition of peptide-bond formation (Ki* = 0.3 μM; S1 Fig, panel C). In addition, the slow k off rate (0.64 min^-1) provided prolonged residence time for compound 5 at the ribosome, a behavior potentially predicting good efficacy in vivo [28].
The puromycin reaction, i.e. the reaction between complex C and excess puromycin (S), was carried out at 25°C in buffer A [100 mM Tris-HCl pH 7.2, 6 mM (CH3COO)2Mg, 100 mM NH4Cl and 6 mM 2-mercaptoethanol]. Under these conditions, the puromycin reaction obeys C + S ⇄KS CS→kcat C^′ + S pseudo-first-order kinetics and was analyzed as previously described.
In the presence of CAM dimers, biphasic semi-logarithmic time plots were obtained. The slope of the straight line through the origin was seen as the value of the apparent rate constant, k obs(early), at the early phase of the reaction. Similarly, the slope of the second straight line was taken as the apparent rate constant, k obs(late), at the late phase of the puromycin reaction.

[3] = overall inhibition constant (CI + C*I)

O=C(CC(=O)N[C@H](CO)[C@H](O)c1ccc([N+](=O)[O-])cc1)N[C@H](CO)[C@H](O)c1ccc([N+](=O)[O-])cc1 [Compound 1, N^1,N^3-Bis((1R,2R)-1,3-dihydroxy-1-(4-nitrophenyl)propan-2-yl)malonamide]
EC50 (MRSA (GRE2272)): > 200 µM
EC50 (MRSA (GRE2691)): > 200 µM
EC50 (S. aureus (WT)): 32.2 ± 1 µM
EC50 (E. faecium (GRE5152)): > 200 µM
melting point: 142 to 143 °C
EC50 [1]: > 200 µM
EC50 (E. coli (A2058G)): > 200 µM
EC50 (E. coli (ΔtolC)): > 200 µM
EC50 (E. coli (WT)): > 200 µM
EC50(cell growth)/IC50(puro) (E. coli (WT)): >55.5
EC50 (E. coli (A2503C)): > 200 µM
EC50 (P. aeruginosa (GRE5288)): > 100 µM
Ki ([2]; encounter complex CI): 2.4 ± 0.18 µM
k off [2]: 0.01 ± 0.00083 s⁻¹
Ki [2, 3]: 0.6 ± 0.05 µM
activity compared to CAM [2]: comparable

O=C(/C=C/C(=O)N[C@H](CO)[C@H](O)c1ccc([N+](=O)[O-])cc1)N[C@H](CO)[C@H](O)c1ccc([N+](=O)[O-])cc1 [Compound 2, N^1,N^4-Bis((1R,2R)-1,3-dihydroxy-1-(4-nitrophenyl)propan-2-yl)fumaramide]
EC50 (MRSA (GRE2272)): > 200 µM
EC50 (MRSA (GRE2691)): > 200 µM
EC50 (S. aureus (WT)): 44.4 ± 2.9 µM
EC50 (E. faecium (GRE5152)): > 200 µM
melting point: 207 to 208 °C
EC50 [1]: > 200 µM
EC50 (E. coli (A2058G)): > 200 µM
EC50 (E. coli (ΔtolC)): > 200 µM
EC50 (E. coli (WT)): > 200 µM
EC50(cell growth)/IC50(puro) (E. coli (WT)): >44.4
EC50 (E. coli (A2503C)): > 200 µM
EC50 (P. aeruginosa (GRE5288)): > 100 µM
Ki ([2]; encounter complex CI): 2.7 ± 0.25 µM
k off [2]: 0.0117 ± 0.00083 s⁻¹
Ki [2, 3]: 0.75 ± 0.06 µM
activity compared to CAM [2]: comparable

O=C(CCCC(=O)N[C@H](CO)[C@H](O)c1ccc([N+](=O)[O-])cc1)N[C@H](CO)[C@H](O)c1ccc([N+](=O)[O-])cc1 [Compound 3, N^1,N^5-Bis((1R,2R)-1,3-dihydroxy-1-(4-nitrophenyl)propan-2-yl)glutaramide]
EC50 (MRSA (GRE2272)): 20.8 ± 2.5 µM
EC50 (MRSA (GRE2691)): 27.2 ± 3.4 µM
EC50 (S. aureus (WT)): 17.4 ± 1.3 µM
EC50 (E. faecium (GRE5152)): 69.8 ± 14.8 µM
EC50 [1]: 65.1 ± 6.6 µM
EC50 (E. coli (A2058G)): 47.3 ± 6.9 µM
EC50 (E. coli (ΔtolC)): 43.7 ± 5.2 µM
EC50 (E. coli (WT)): 52.4 ± 6.8 µM
EC50(cell growth)/IC50(puro) (E. coli (WT)): 7.28 ± 1.08
EC50 (E. coli (A2503C)): 68.1 ± 13.8 µM
EC50 (P. aeruginosa (GRE5288)): 42.4 ± 8.7 µM
Ki ([2]; encounter complex CI): 4.5 ± 0.36 µM
k off [2]: 0.0167 ± 0.0005 s⁻¹
Ki [2, 3]: 1.2 ± 0.09 µM
activity compared to CAM [2]: lower

O=C(CCCCCCC(=O)N[C@H](CO)[C@H](O)c1ccc([N+](=O)[O-])cc1)N[C@H](CO)[C@H](O)c1ccc([N+](=O)[O-])cc1 [Compound 6, N^1,N^8-Bis((1R,2R)-1,3-dihydroxy-1-(4-nitrophenyl)propan-2-yl)octane-diamide]
EC50 (MRSA (GRE2272)): > 200 µM
EC50 (MRSA (GRE2691)): > 200 µM
EC50 (S. aureus (WT)): 49.6 ± 5.4 µM
EC50 (E. faecium (GRE5152)): > 200 µM
melting point: 131 to 132 °C
EC50 [1]: > 200 µM
EC50 (E. coli (A2058G)): > 200 µM
EC50 (E. coli (ΔtolC)): > 200 µM
EC50 (E. coli (WT)): > 200 µM
EC50(cell growth)/IC50(puro) (E. coli (WT)): >14.5
EC50 (E. coli (A2503C)): > 200 µM
EC50 (P. aeruginosa (GRE5288)): > 100 µM
Ki ([2]; encounter complex CI): 10.5 ± 0.9 µM
k off [2]: 0.0133 ± 0.00067 s⁻¹
Ki [2, 3]: 2.3 ± 0.2 µM
activity compared to CAM [2]: lower
